Measured values taken from EP4635945A1, “CRYSTAL FORM OF PROXIMOD, PREPARATION METHOD THEREFOR, AND USE THEREOF” (Jiankuan (Suzhou) Biotechnology Co., Ltd, priority 2022, dated 2024).

Test: Crystal form stability on vacuum drying (XRPD)
Format: physicochemical
Method: After the above sample was dried under vacuum at 50 °C for 6 hours, the XRPD detection was performed. […] The TGA curves of the sample of the crystal form D of proximod which was dried and the sample of the crystal form D of proximod which was dried and placed at room temperature for two days are shown in FIGS. 16 and 17, respectively. […] The theoretical weight loss of the proximod […] is 6.1%. […] Based on the above experimental results, it is inferred that the crystal form D is an unstable sesquihydrate. It is inferred that the crystal form D is an unstable sesquihydrate and is prone to crystal transformation during drying and storage, making it difficult to prepare a pure phase.
The obtained wet sample was subjected to the XRPD detection. The obtained solid was the crystal form F of the present application, and the X-ray powder diffraction (XRPD) pattern of the crystal form F is shown in FIG. 21. After the wet sample was dried under vacuum at 50 °C for 2 hours, the XRPD detection was performed.

SMILES	Crystal form after drying (XRPD) (dried under vacuum at 50 °C for 6 hours)	Crystal form after drying (XRPD) (wet sample dried under vacuum at 50 °C for 2 hours)
CCCc1nc(-c2ccc(-c3ccc(CCC(N)(CO)CO)cc3)cc2)co1.Cl [Crystal form D, 2-amino-2-{2-(4'-(2-propyloxazol-4-yl)-[1,1'-biphenyl]-4-yl)ethyl}-1,3-propanediol hydrochloride]	partially crystal transformed into the crystal form A	
CCCc1nc(-c2ccc(-c3ccc(CCC(N)(CO)CO)cc3)cc2)co1.Cl [Crystal form F, 2-amino-2-{2-(4'-(2-propyloxazol-4-yl)-[1,1'-biphenyl]-4-yl)ethyl}-1,3-propanediol hydrochloride]		partially crystal transformed into the crystal form A
